From patent publication US10793530B2, “Benzylaminopyrazinylcyclopropanecarboxylic acids, pharmaceutical compositions and uses thereof” (Boehringer Ingelheim International GmbH, priority 2017, dated 2020)
pEC50: −log10 of the molar value. ≈ marks a conversion by molar mass, not a printed value.

Key:
[1] = Aqueous solubility (buffer vs acetonitrile/water, LC-UV); type: physicochemical; conditions: kinetic from dmso stock, buffer pH 6.8, 24 h of shaking, DMSO concentration of 2.5%
Description: The aqueous solubility of the compounds of the invention is determined by comparing the amount dissolved in buffer to the amount in an acetonitrile/water (1/1) solution. Starting from a 10 mM DMSO stock solution aliquots are diluted with acetonitrile/water (1/1) or buffer, respectively. After 24 h of shaking, the solutions are filtrated and analyzed by LC-UV. The amount dissolved in buffer is compared to the amount in the acetonitrile solution. Solubility is usually being measured from 0.001 to 0.125 mg/mL at a DMSO concentration of 2.5%. If more than 90% of the compound is dissolved in buffer, the value is marked with “>”.

human GPR40 receptor = human GPR40 receptor (Homo sapiens, UniProt O14842); experiment: IP1 accumulation measurements using the IPOne assay system; type: cell-based; conditions: 1321N1 cells stably expressing human GPR40 receptor; stimulated 1 h at 37° C.
Sequence of human GPR40 receptor (O14842 whole entry): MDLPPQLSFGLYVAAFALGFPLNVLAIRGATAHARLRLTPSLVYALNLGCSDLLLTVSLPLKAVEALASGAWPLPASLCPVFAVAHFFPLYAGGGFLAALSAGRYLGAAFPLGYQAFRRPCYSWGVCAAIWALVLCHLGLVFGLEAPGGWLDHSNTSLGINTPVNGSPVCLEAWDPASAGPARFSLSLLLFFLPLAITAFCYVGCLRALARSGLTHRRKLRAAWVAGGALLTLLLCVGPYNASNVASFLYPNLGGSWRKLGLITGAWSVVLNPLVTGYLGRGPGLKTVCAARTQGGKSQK
Description: IP1 is assayed according to the manufacturers description (Cisbio Bioassays, France). In brief, the assay is started by substitution of the culture medium by stimulation buffer (Hepes 10 mM, CaCl2 1 mM, MgCl2 0.5 mM, KCl 4.2 mM, NaCl 146 mM, glucose 5.5 mM and LiCl 50 mM, pH 7.4). Cells are stimulated for 1 h at 37° C., 5% CO2 by addition of the compounds that are diluted in stimulation buffer containing LiCl. Assays are stopped by adding HTRF-conjugates (IP1-d2 and Anti-IP1 cryptate Tb) and lysis buffer, provided by the manufacturer. After an incubation time of 1 h at room temperature plates are measured using an EnVision™, Perkin Elmer. The obtained fluorescence ratios at 665/615 […] are then used to calculate the pEC50 values using Assay Explorer 3.3 Software (Accelrys, Inc.) by interpolation using an IP1 reference curve and subsequent sigmoidal curve fitting allowing for a variable hill slope.

Row | SMILES | solubility at 24 h [1] | pEC50 (human GPR40 receptor)
1 | Cc1cc(OCCC(C)(C)O)cc(C)c1-c1ccc(F)c(CNc2cnc([C@H]3C[C@@H]3C(=O)O)cn2)c1 [Example 19] | 72 µg/mL (≈ 146 µM) | 7.80
2 | Cc1cc(-c2nnn(C)n2)cc(C)c1-c1ccc(F)c(CNc2cnc([C@H]3C[C@@H]3C(=O)O)cn2)c1 [Example 26] | 47 µg/mL (≈ 99.3 µM) | 8.22
3 | Cc1cc(-c2nnn(C)n2)cc(C)c1-c1ccc(F)c2c1CC[C@H]2Oc1ccc([C@H]2C[C@@H]2C(=O)O)cc1 [Example 45 in WO 2013/178575, reference compound] | < 1 µg/mL | 
